In test [1] the test system is physiologically induced amnesia mice. Description: ORT with 24 h time delay (natural memory loss). The conditions noted are these: 24 h delay; i.p. It is filed as in vivo. The protocol: Both compounds were further evaluated on a physiologic amnesic model by using ORT with 24 h time delay to induce natural memory loss in mice. The appropriate time delay causing amnesia was initially selected by varying delay times (24, 48, and 72 h) between sample and test phase that have identical and different objects, respectively. […] Therefore, 24 h was used as the time delay between sample and test phase.
FIG. 27 illustrates exploration time to familiar (F) and novel (N) objects in test phase of ORT following a time delay. Each mouse was allowed to explore an open field apparatus for 5 min in a habituation phase one day before a sample phase. In the test day, vehicle (SH) and test compounds IND8, QND8 and PNU were injected 1 h before measurement of exploration time. Each mouse was allowed to explore 2 identical objects in the sample phase for 5 min. On the next day (24 h), one of the objects was changed to a new one and the mouse was allowed to explore these objects for 5 min. The exploration time of these objects was recorded. Data are presented as means±SE, n=6-8 mice/group. **p<0.01, ***p<0.001 vs exploration time of familiar object, paired student's t-test.
The DI was calculated and compared with the control group to evaluate IND8, QND8, and PNU-282987 enhancement of cognitive function. Data are shown in FIG. 28, which illustrates discrimination index (TN−TF/TN+TF) of each compound in the test phase of ORT with time delay protocol. There was a significant difference in DI (F6,43=6.097, p<0.001, n=6-8 mice/group). **p<0.01, ***p<0.001 vs vehicle group (SH), one-way ANOVA with Fisher's LSD post hoc comparison.
The apparatus used in this experiment was the same as ORT test. This experiment was divided into 2 parts directed to dose finding and establishing mechanism of action.
For dose finding protocol, the mice were randomly divided into different treatment groups, a control group receiving a vehicle and tested groups receiving PNU-282987 at 3, 10 mg/kg, and IND8, QND8 for 10, 25 μmol/kg, single dose. They were allowed to freely explore the open field apparatus for 5 min for habituation in a day before the experiment (day 1). On the test day (day 2), the test compound was injected 1 h before the sample phase. In this phase, mice were placed in the apparatus to explore two identical objects. On the next day (day 3), one object was changed to a new one and mice were allowed to explore these objects for 5 min in the test phase. For proving cognitive enhancement mediated through α7-nAChRs, the protocol was the same as mentioned above except MLA (3 mg/kg), selective α7-nAChR antagonist, was injected 5 min before test compounds in the sample phase (day 2) to block the cognitive enhancement effect from test compounds. The dose of test compounds is selected from the effective dose from the former experiment. The exploration time of each object was recorded if the nose of mouse came within 3 cm or touched the objects. The discrimination index (DI) was calculated by using (TN−TF)/(TN+TF); TN and TF represented exploration time of new and familiar objects, respectively.

For another test, the target named is T1, α7-nAChRs (Homo sapiens, UniProt P36544).
T1 construct: expressed in transfected cells; host or cells: HEKtsA201 cells co-expressing TN-XXL
Nature of the test: FRET functional assay (agonist/antagonist) using LGIC-CNiFERs. The class given is cell-based. The settings on record: for EC50: in presence of 10 μM PNU-120596, * partial agonist, >10 = did not pass initial screen, read-out: Agonist EC50 ± SD, α7. The protocol:
(§1) Initially, the agonist properties of tested compounds were assessed directly. […] All α7-nAChR functional assays were performed in the presence of PNU-120596, an α7-nAChR positive allosteric modulator (PAM), to increase signal and delay the sensitization state of α7-nAChRs enabling the measurement of more prolonged FRET signals.^29 Compounds having agonist responses of >0.20 were determined for EC50, and compounds having inhibition fraction of >0.50 were determined for KA.^25 EC50>13.3 μM and KA>10 μM which are a screening concentration for agonist and antagonist, respectively were reported compounds not taken for further in the screening of receptor occupation and responses.
(§2) Agonist and antagonist elicited responses were characterized using the above CNiFER cell expressing Cys-loop ligand-gated ion channel (LGIC) receptors. […] A 96-well black, clear-bottom microplate (Greiner bio-one, Germany) was coated with poly-D-lysine (Sigma-Aldrich, St. Louis, Mo.) 50 μL/well for 30 min and washed out with Phosphate-Buffered Saline (PBS) (Corning, Cellgro, Manassas, Va.) before plating the cells. After plating and incubation at 37° C. for 1 day, the media was replaced with 100 μL of artificial cerebrospinal fluid (aCSF: 121 mM NaCl, 5 mM KCl, 26 mM NaHCO3, 1.2 mM NaH2PO4H2O, 10 mM glucose, 2.4 mM CaCl2, 1.3 mM MgSO4, 5 mM HEPES, pH 7.4) for 4032 and 5HT3A receptors, whereas 10 μM PNU-120596 (Tocris Bioscience, Bristol, UK) in aCSF with 30 min incubation at 37° C. was used for α7-nAChR. The tested compounds were prepared in aCSF for all receptors except α7-nAChR, where 10 μM PNU-120596, a positive allosteric modulator (PAM) was used. The prepared compounds were added in a separate 96-well polypropylene plate (Costar, Corning, N.Y.). Experiments were conducted at 37° C. using 436-nm excitation. Emitted light was collected at 485 nm and 528 nm. Basal fluorescence was recorded for 30 s, followed by addition of 50 μL of ligand (first addition). Measurements were made at 3.84 s intervals for 2 min to measure the agonistic effect. […] Agonist and antagonist properties were sequentially screened at the final concentration of 13.3 and 10 μM, respectively, which differed from the screening concentration from intact cell binding assay (10 μM).

Test [2] addresses T2, 5HT3A receptors (Mus musculus, UniProt P23979).
T2 construct: expressed in transfected cells; host or cells: HEK293 cells co-expressing TN-XXL
T2 sequence (P23979 24-489): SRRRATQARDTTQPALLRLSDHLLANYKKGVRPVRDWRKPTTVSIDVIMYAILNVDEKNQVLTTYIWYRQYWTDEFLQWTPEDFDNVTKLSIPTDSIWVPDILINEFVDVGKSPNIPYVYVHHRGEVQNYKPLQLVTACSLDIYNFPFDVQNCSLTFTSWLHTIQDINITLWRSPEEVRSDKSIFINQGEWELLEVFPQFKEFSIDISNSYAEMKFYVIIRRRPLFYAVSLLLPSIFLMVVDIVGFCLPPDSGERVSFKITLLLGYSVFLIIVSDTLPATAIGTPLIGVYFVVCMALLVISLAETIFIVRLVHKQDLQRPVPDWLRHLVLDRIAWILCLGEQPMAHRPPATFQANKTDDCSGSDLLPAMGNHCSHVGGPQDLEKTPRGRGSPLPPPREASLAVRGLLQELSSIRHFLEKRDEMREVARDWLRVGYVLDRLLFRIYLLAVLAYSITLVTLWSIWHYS
The description is as above. It is filed as cell-based. The settings on record: for Kd: competitive antagonist (^C), >10 = did not pass initial screen, vs 5-HT, read-out: Antagonist KA ± SD, 5HT3A; for Functional properties at 5HT3A receptors (agonist / antagonist, type): functional screening and characterization; for EC50: read-out: Agonist EC50 ± SD, 5HT3A. The protocol: as §1, §2

The target in test [3] is T3, α4β2-nAChRs (Homo sapiens, UniProt P17787+P43681).
T3 construct: expressed in transfected cells; host or cells: HEKtsA201 cells co-expressing TN-XXL
The description is as above. It is filed as cell-based. The conditions noted are these: for Functional properties at α4β2-nAChRs (agonist / antagonist, type): functional screening and characterization. The method, then: as §1, §2

Test [4] concerns the target T3, α4β2-nAChRs. Nature of the test: Intact cell competitive radioligand binding assay ([3H]-(±)-epibatidine, SPA), LGIC-CNiFERs. The settings on record: 10 μM, more than 50% radioligand displacement. Background: Loss of bound radioactivity is the signal in a displacement assay; it reports binding, not function.
The target in test [5] is α7/5HT3A chimera receptor (hα7/m5HT3A), used for α7-nAChRs (UniProt P23979+P36544, M226I/T225I). The test is described as above. The settings on record: for Kd: read-out: Kd ± SD, α7-nAChRs, >10 = did not pass initial screen at 10 μM.
Test [6] deals with T2, 5HT3A receptors. Nature of the test: Intact cell competitive radioligand binding assay ([3H]-granisetron, SPA), LGIC-CNiFERs. The conditions noted are these: for Kd: Kd ± SD, 5HT3A, >10 = did not pass initial screen at 10 μM.
[7] abbreviates: 10 μM, more than 50% radioligand displacement.
[8] abbreviates: Antagonist KA ± SD, α4β2, competitive antagonist (^C), >10 = did not pass initial screen, vs (±)-epibatidine.
Where [9] appears, read: read-out: Antagonist KA ± SD, α4β2, non-competitive.

Where “and” joins values, the source holds several entries; their conditions need not be identical. Identical values can stand only once. Entries after “also recorded” stand apart in the source; their conditions may differ. Like-named read-outs stand apart in the source and are kept apart here.

For orientation: EC50 means the concentration that produces a half-maximal response.

For `CCN1C[C@]2(COC(=O)c3ccccc3N3C(=O)C[C@H](C)C3=O)CC[C@H](OC)[C@@]34[C@@H]5C[C@H]6[C@H](OC)[C@@H]5[C@](O)(C[C@@H]6OC)[C@@](O)([C@@H](OC)[C@H]23)[C@@H]14` [MLA, methyllycaconitine, reference compound], in test [1], the “Discrimination index / cognition enhancement, ORT time delay vs control group” value was “does not enhance episodic memory; also recorded: did not have cognitive enhancement effect”.
For the compound `c1ccc(-c2ccc(-c3cn(CCN4CCCCC4)nn3)cc2)cc1` [PPRD7, 1-(2-(4-(Biphenyl-4-yl)-1,2,3-triazol-1-yl)ethyl)piperidine], the “Functional properties at α7-nAChRs (agonist / antagonist)” value at α7-nAChRs (functional screening and characterization) is “did not pass the functional screening”. The EC50 on α7-nAChRs is more than 10000 nM. Also, on 5HT3A receptors [2], the Kd was more than 10000 nM; the “Functional properties at 5HT3A receptors (agonist / antagonist, type)” value is “did not pass the functional screening”; the EC50 was more than 10000 nM. Further, on α4β2-nAChRs [3], the “Functional properties at α4β2-nAChRs (agonist / antagonist, type)” value is on record as “did not pass the functional screening”. The Kd on α4β2-nAChRs [3] (read-out: Antagonist KA ± SD, α4β2) was more than 10000 nM. On α4β2-nAChRs [4], the “Initial screening for binding to α4β2-nAChRs” value was “cannot bind to all tested LGIC receptors”. Also, the “Initial screening for binding to α7-nAChRs” value in test [5] (setting [7]) was “cannot bind to all tested LGIC receptors”. Moreover, the “Initial screening for binding to 5HT3A receptors” value on 5HT3A receptors [6] (setting [7]) is “cannot bind to all tested LGIC receptors”.
For `COc1ccc2cc(-c3cn(C4CN5CCC4CC5)nn3)ccc2c1` (stereo not shown) [QND6, 3-(4-(6-Methoxynaphthalen-2-yl)-1,2,3-triazol-1-yl)quinuclidine], the EC50 at α7-nAChRs was 22000 ± 6000 nM; on 5HT3A receptors [2], more than 10000 nM. Also, the results for the Kd at 5HT3A receptors [2], at α4β2-nAChRs [3] (setting [8]) and on α4β2-nAChRs [3] (setting [9]) were more than 10000 nM, 7000 ± 4500 nM and 6200 ± 400 nM, respectively. Further, the “Functional properties at α4β2-nAChRs (agonist / antagonist, type)” value on α4β2-nAChRs [3] is listed as “mix-competitive antagonist”. Also, the “Initial screening for binding to α4β2-nAChRs” value on α4β2-nAChRs [4] is “associate well with α4β2-nAChRs”.
On to `Cn1ccc2cc(-c3cn(C4CN5CCC4CC5)nn3)ccc21` (stereo not shown) [QND9, 3-(4-(1-Methyl-indol-5-yl)-1,2,3-triazol-1-yl)quinuclidine], for which the EC50 at α7-nAChRs was found to be 1000 ± 40 nM; on 5HT3A receptors [2], 1380 ± 520 nM. For the same compound, the results for the Kd (at α4β2-nAChRs [3] (setting [8]); at α4β2-nAChRs [3] (setting [9]); in test [5]) were 5200 ± 1200 nM, 6500 ± 200 nM and 1880 nM, respectively. Besides, the “Functional properties at α4β2-nAChRs (agonist / antagonist, type)” value at α4β2-nAChRs [3] is on record as “mix-competitive antagonist”. Besides, at α4β2-nAChRs [4], the “Initial screening for binding to α4β2-nAChRs” value is reported as “associate well with α4β2-nAChRs”. Besides, in test [5], the “Fold increase of Kd (α7-nAChRs) compared to IND8” value came to 15 fold.
Consider `c1ccc2c(-c3cn(C4CN5CCC4CC5)nn3)c[nH]c2c1` (stereo not shown) [QND12, 3-(4-(Indol-3-yl)-1,2,3-triazol-1-yl)quinuclidine], for which the EC50 on α7-nAChRs came to 450 ± 140 nM; at 5HT3A receptors [2], 340 ± 130 nM. Besides, the Kd at α4β2-nAChRs [3] (setting [8]) was more than 10000 nM; in test [5], 920 nM; on 5HT3A receptors [6], 20 to 50 nM and 20 nM. In addition, the “Fold increase of Kd (α7-nAChRs) compared to IND8” value in test [5] was found to be 9 fold.
With `COC(=O)c1cc(-c2cn(C3CN4CCC3CC4)nn2)ccc1N` (stereo not shown) [QND15, Methyl 2-amino-5-(1-(quinuclidin-3-yl)-1H-1,2,3-triazol-4-yl)benzoate], the EC50 was found to be 1340 nM at α7-nAChRs and 260 ± 30 nM at 5HT3A receptors [2]. The “Functional properties at 5HT3A receptors (agonist / antagonist, type)” value on 5HT3A receptors [2] is 5HT3A receptor agonist properties. Also, the results for the Kd (at α4β2-nAChRs [3] (setting [8]); in test [5]; at 5HT3A receptors [6]) were 11600 ± 1000 nM, 3610 nM and 40 nM, respectively. In addition, the “Functional properties at α4β2-nAChRs (agonist / antagonist, type)” value at α4β2-nAChRs [3] was “competitive antagonism”. For the same compound, the “Fold lower affinity for α7-nAChRs than QND2” value in test [5] was determined as 10 fold.

For the origin of these results see patent publication US20180244653A1, “SELECTIVE ALPHA-7 NICOTINIC RECEPTOR AGONISTS AND METHODS FOR MAKING AND USING THEM” (THE REGENTS OF THE UNIVERSITY OF CALIFORNIA, priority 2015, published 2018).
